Source: patent US6747164B2, “Use of amine compounds with improved biodegradability as adjuvants for pesticides and fertilizers” (priority 2000, dated 2004)
Values joined by “and” are separate entries in the source; they are usually repeats but may differ in a detail not shown here. Identical values can stand only once.

How the values were obtained:
Assay type in all cases: in vivo
[1] = tested on: Lolium rigidum; assay: Greenhouse test of glyphosate/adjuvant formulations with Lolium rigidum
[2] = tested on: Brassica napus; assay: Greenhouse test of glyphosate/adjuvant formulations with Brassica napus
[3] = tested on: Elymus repens; assay: Greenhouse test of glyphosate/adjuvant formulations with Elymus repens
[4] = Example 2, Table 4, glyphosate 0.75 kg a.e./ha, glyphosate/adjuvant 2:1, 4 weeks after spraying

Molecule: Monoester between polyethyleneglycol (2.5 EO)-monococo ether monocarboxymethyl ether and triethanolamine
- Effect ([1]; in vivo): 48% and 68% and 88%

Molecule: CCCCCCOC1OC(CO)C(O)C(O)C1O (centres unmarked) [Hexyl glucoside, reference compound]
- Effect [2, 4]: 57%

Molecule: CCCCC(CC)COC1OC(CO)C(O)C(O)C1O (centres unmarked) [2-ethylhexyl glucoside, reference compound]
- Effect [2, 4]: 63%

Molecule: Cocoamide of N,N-bishydroxyethyl-1,3-propylenediamine
- Effect ([3]; Example 2, Table 3, glyphosate 0.15 kg a.e./ha, glyphosate/adjuvant 2:1, 5 weeks after spraying, 100% = totally dead plant): 13%
- Effect ([3]; Example 2, Table 3, glyphosate 0.15 kg a.e./ha, glyphosate/adjuvant 5:1, 5 weeks after spraying): 8%
- Effect ([3]; Example 2, Table 3, glyphosate 0.25 kg a.e./ha, glyphosate/adjuvant 2:1, 5 weeks after spraying): 75%
- Effect ([3]; Example 2, Table 3, glyphosate 0.25 kg a.e./ha, glyphosate/adjuvant 5:1, 5 weeks after spraying): 65%
- Effect ([3]; Example 2, Table 3, glyphosate 0.75 kg a.e./ha, glyphosate/adjuvant 2:1, 5 weeks after spraying): 97%
- Effect ([3]; Example 2, Table 3, glyphosate 0.75 kg a.e./ha, glyphosate/adjuvant 5:1, 5 weeks after spraying): 95%
- Effect ([3]; Example 3, Table 6, glyphosate 0.15 kg a.e./ha, glyphosate/adjuvant 2:1, 7 weeks after spraying): 33%
- Effect ([3]; Example 3, Table 6, glyphosate 0.25 kg a.e./ha, glyphosate/adjuvant 2:1, 7 weeks after spraying): 47%
- Effect ([3]; Example 3, Table 6, glyphosate 0.75 kg a.e./ha, glyphosate/adjuvant 2:1, 7 weeks after spraying): 100%
- Effect ([1]; Example 2, Table 5, glyphosate 0.08 kg a.e./ha, glyphosate/adjuvant 2:1, 4 weeks after spraying): 57%
- Effect ([1]; Example 2, Table 5, glyphosate 0.08 kg a.e./ha, glyphosate/adjuvant 5:1, 4 weeks after spraying): 23%
- Effect ([1]; Example 2, Table 5, glyphosate 0.15 kg a.e./ha, glyphosate/adjuvant 2:1, 4 weeks after spraying): 78%
- Effect ([1]; Example 2, Table 5, glyphosate 0.15 kg a.e./ha, glyphosate/adjuvant 5:1, 4 weeks after spraying): 72%
- Effect ([1]; Example 2, Table 5, glyphosate 0.25 kg a.e./ha, glyphosate/adjuvant 2:1, 4 weeks after spraying): 97%
- Effect ([1]; Example 2, Table 5, glyphosate 0.25 kg a.e./ha, glyphosate/adjuvant 5:1, 4 weeks after spraying): 88%
- Effect ([1]; Example 3, Table 8, glyphosate 0.08 kg a.e./ha, glyphosate/adjuvant 2:1, 4 weeks after spraying): 40%
- Effect ([1]; Example 3, Table 8, glyphosate 0.15 kg a.e./ha, glyphosate/adjuvant 2:1, 4 weeks after spraying): 58%
- Effect ([1]; Example 3, Table 8, glyphosate 0.25 kg a.e./ha, glyphosate/adjuvant 2:1, 4 weeks after spraying): 93%
- Effect ([2]; Example 2, Table 4, glyphosate 0.15 kg a.e./ha, glyphosate/adjuvant 2:1, 4 weeks after spraying): 40%
- Effect ([2]; Example 2, Table 4, glyphosate 0.15 kg a.e./ha, glyphosate/adjuvant 5:1, 4 weeks after spraying): 8%
- Effect ([2]; Example 2, Table 4, glyphosate 0.25 kg a.e./ha, glyphosate/adjuvant 2:1, 4 weeks after spraying): 70%
- Effect ([2]; Example 2, Table 4, glyphosate 0.25 kg a.e./ha, glyphosate/adjuvant 5:1, 4 weeks after spraying): 73%
- Effect [2, 4]: 98%
- Effect ([2]; Example 2, Table 4, glyphosate 0.75 kg a.e./ha, glyphosate/adjuvant 5:1, 4 weeks after spraying): 87%
- Effect ([2]; Example 3, Table 7, glyphosate 0.15 kg a.e./ha, glyphosate/adjuvant 2:1, 4 weeks after spraying): 45%
- Effect ([2]; Example 3, Table 7, glyphosate 0.25 kg a.e./ha, glyphosate/adjuvant 2:1, 4 weeks after spraying): 52%
- Effect ([2]; Example 3, Table 7, glyphosate 0.75 kg a.e./ha, glyphosate/adjuvant 2:1, 4 weeks after spraying): 90%

Molecule: Monoester between polyethyleneglycol (4.5 EO)-monococo ether monocarboxymethyl ether and triethanolamine
- Effect ([1]; in vivo): 52% and 72% and 96%
- Effect ([2]; in vivo): 58% and 75% and 92%
